In patent publication US8821891B2, “Live attenuated rotavirus vaccine for oral administration” (priority 2005, dated 2014):
Read-outs that look alike come from different tables or passages of the source.

Assays:
[1] = standard acid-base titration curve, FIG. 1
[2] = cited from earlier work

SMILES | pKa (physchem) | useful antacid capacity between pH 4.0 and pH 7.0 [1] | further results
O=C(O)CCCCC(=O)O [Adipic, adipic acid] | 4.91 |  | 
O=C(O)CCCC(=O)O [Glutaric, glutaric acid] | 4.78 |  | 
O=C([O-])CCCCC(=O)[O-].[Na+].[Na+] [sodium adipate] |  | 72.50% | 
O=C(O)CC(O)C(=O)O (centres unmarked) [Malic, malic acid] | 4.22 |  | 
O=C(O)CCC(=O)O [Succinic, succinic acid] | 4.9 |  | Toxicity (LD50 oral, in rat) ([2]; in vivo, po): 2260 mg/kg
O=C([O-])CC(O)(CC(=O)[O-])C(=O)[O-].[Na+].[Na+].[Na+] [sodium citrate] |  | 57.70% | 
CCC(=O)O [Propinic, propionic acid] |  |  | Toxicity (LD50 oral, in rat) ([2]; oral): 2600 mg/kg
O=C(O)/C=C\C(=O)O [Maleic, maleic acid] | 4.07 |  | 
CC(=O)[O-].[Na+] [sodium acetate] |  | 68.75% | 
O=C([O-])CC(O)C(=O)[O-].[Na+].[Na+] (centres unmarked) [sodium malate] |  | 41.25% | 
